Measurements: BindingDB's records for doi:10.1021/jm980551o (Novartis, 1999)

Assay: Inhibition of EGF-dependent mouse keratinocyte MK cell proliferation

**Q.** With `COc1cc2ncnc(Nc3cccc(Cl)c3)c2cc1OC` as the compound, how does the IC50 read?
**A.** The IC50 was under 100 nM.
